Where a name gives a salt, the structure may show the parent alone.
What was measured:
[1] = molecular target: 5-HT7(a) receptor (Homo sapiens, UniProt P34969); test: saturation radioligand binding, membranes; conditions: read-out: [^3H]-mesulergine / Kd; labelled compound; stable HEK293
[2] = molecular target: 5-HT7(d) receptor (Homo sapiens, UniProt P34969); test: saturation radioligand binding, membranes; conditions: read-out: [^3H]-mesulergine / Kd; labelled compound; stable HEK293
[3] = molecular target: T1, 5-HT7(b) receptor (Homo sapiens, UniProt P34969)
T1 sequence (P34969 1-432 limits assumed): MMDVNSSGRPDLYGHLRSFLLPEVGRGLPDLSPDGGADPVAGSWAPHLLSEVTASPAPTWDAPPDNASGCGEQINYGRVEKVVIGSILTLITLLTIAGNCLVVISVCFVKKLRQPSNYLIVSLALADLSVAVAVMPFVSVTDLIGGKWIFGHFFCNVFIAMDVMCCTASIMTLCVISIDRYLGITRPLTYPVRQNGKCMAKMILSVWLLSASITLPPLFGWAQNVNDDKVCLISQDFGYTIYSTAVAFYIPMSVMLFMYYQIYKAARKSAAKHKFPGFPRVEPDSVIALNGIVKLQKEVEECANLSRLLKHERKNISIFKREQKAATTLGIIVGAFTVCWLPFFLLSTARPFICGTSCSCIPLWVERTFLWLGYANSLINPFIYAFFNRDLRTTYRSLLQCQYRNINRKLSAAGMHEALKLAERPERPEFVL

[4] = molecular target: T1, 5-HT7(b) receptor; test: saturation radioligand binding, membranes; conditions: read-out: [^3H]-mesulergine / Kd; labelled compound; stable HEK293

Chain of 5-HT7(a) receptor (P34969 1-445 isoform P34969-2): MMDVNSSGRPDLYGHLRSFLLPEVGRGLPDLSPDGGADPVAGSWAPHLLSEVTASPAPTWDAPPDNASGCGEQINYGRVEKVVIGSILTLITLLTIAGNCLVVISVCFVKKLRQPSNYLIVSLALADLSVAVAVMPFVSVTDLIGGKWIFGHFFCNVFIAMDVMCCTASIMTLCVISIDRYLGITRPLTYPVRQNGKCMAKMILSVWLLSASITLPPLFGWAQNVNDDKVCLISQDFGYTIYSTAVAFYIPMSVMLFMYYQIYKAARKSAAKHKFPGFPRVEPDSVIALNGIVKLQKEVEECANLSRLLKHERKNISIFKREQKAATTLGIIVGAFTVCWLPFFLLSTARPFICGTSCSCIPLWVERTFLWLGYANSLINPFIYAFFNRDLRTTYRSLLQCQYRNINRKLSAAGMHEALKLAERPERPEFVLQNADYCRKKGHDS
Chain of 5-HT7(d) receptor (P34969 whole entry): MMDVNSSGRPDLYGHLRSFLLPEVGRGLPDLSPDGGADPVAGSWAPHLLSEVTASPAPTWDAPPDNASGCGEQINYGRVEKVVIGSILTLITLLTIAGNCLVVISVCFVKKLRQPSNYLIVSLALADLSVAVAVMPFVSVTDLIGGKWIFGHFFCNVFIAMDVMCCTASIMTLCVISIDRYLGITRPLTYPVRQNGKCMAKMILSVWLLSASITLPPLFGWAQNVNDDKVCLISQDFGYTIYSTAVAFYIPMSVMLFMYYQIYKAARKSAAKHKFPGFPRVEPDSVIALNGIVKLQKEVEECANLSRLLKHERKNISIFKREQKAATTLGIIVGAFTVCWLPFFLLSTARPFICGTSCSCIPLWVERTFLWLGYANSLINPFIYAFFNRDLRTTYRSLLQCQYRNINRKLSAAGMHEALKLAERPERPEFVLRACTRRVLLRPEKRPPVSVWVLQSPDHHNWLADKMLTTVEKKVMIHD

CN1C[C@@H](NS(=O)(=O)N(C)C)C[C@@H]2c3cccc4c3c(cn4C)C[C@H]21 [mesulergine, N′-[(8a)-1,6-dimethylergolin-8-yl]-N,N-dimethylsulfamide hydrochloride]
Kd [1]: 9.2 ± 1.6 nM | Kd [2]: 9.6 ± 1.2 nM | pEC50 [3]: 8.7 ± 0.1 | Kd [4]: 6.2 ± 0.7 nM

Source: publication PMC4523340 (British Journal of Pharmacology, 2015)
